Measurements: patent US12162935B2, “Regimens, compositions and methods with capsaicin and TNF-alpha inhibitor” (priority 2018, dated 2024)

Key:
[1] = tested on: Wistar rats; experiment: ABR threshold shifts, noise induced hearing loss (NIHL); type: in vivo, rat
Method: Male Wistar rats (150-250 gm) were used for this study under an animal care protocol approved by the Laboratory and Animal Care and Use Committee (SIU School of Medicine). Pre-treatment ABRs were performed. Animals were then treated according to the experimental paradigm. Prevention strategy: consisted of administration of ETA either intra-tympanic ally (IT) (250 μg/50 μl) or subcutaneously (sc) (3 mg/kg) or PBS (IT-50 μl or sc-1 ml) either 3 days or 7 days prior to noise exposure (NE).
Animals were exposed to noise (NE), and then provided ETA treatments either IT or SC at either 2 h or 24 h post noise injury. Post treatment ABR thresholds were determined at 21 days post noise exposure and cochleae were excised for morphological, molecular and biochemical studies. Cochleae used for RNA preparations were flushed immediately with RNA later and kept in RNA later for 24 h at 4° C. Those used for immunohistochemical studies were perfused and fixed with 4% paraformaldehyde, while those used for Scanning electron microscopy (SEM) were perfused and fixed with 2.5% glutaraldehyde. Cochleae used for whole mounts were decalcified for 7-10 days in 100 mM EDTA at room temperature.
Male Wistar rats were exposed to octave band noise at 122 dB centered at 16 kHz for 1 h under isofluorane anesthesia, with the 3 inch silicon tubes attached to the high frequency transducer resting in the middle ear cavity. This exposure typically results in a 30-50 dB temporary threshold shift (measured as an immediate pre-to-post noise exposure shift in ABR thresholds) across all frequencies; with slightly more elevation at those frequencies around 16 kHz and 20-40 dB permanent threshold shift measured at 21 days post noise exposure at all frequencies. Acoustic stimuli are calibrated using a cloth model rat and a Bruel & Kjaer Pulse System with a ½ inch free-field microphone (B&K model 4191). Baseline noise levels in the test chamber (with background test noise turned off) are typically measured below 20 dB SPL in the 4-40 kHz range.
Pre-treatment ABR thresholds were determined using the high frequency Intelligent Hearing Systems (IHS) on naive rats prior to any treatment or noise exposure for each ear. Animals were tested with a stimulus intensity series that was initiated at 0 dB sound pressure level (SPL) and reached a maximum at 90 dB SPL. The stimulus intensity levels were increased in 10 dB increments, and the evoked ABR waveforms were observed on a video monitor. The auditory stimuli included tone bursts at 8, 16, and 32 kHz with a 10 msec plateau and a 1 msec rise/fall time presented at a rate of 5/sec. Threshold was defined as the lowest intensity capable of evoking a reproducible, visually detectable response with two distinct waveforms and minimum amplitude of 0.5 μV.
Preconditioning of the TRPV1 receptor in the rat cochlea by oral administration of capsaicin is shown here to protect from NIHL. Male Wistar rats weighing 200-250 gms were used. ABRs from naïve rats were recorded. Rats were then treated with oral phosphate buffered saline (PBS—1 ml) or capsaicin (1 ml of 20 mg/ml) starting 24 hrs prior to NE, on the day of NE, and 24 hrs post NE. The final ABRs were recorded 21 days post NE. Cochleae were collected for various biochemical tests and immunohistochemistry. At least 6 animals were used per treatment group. NE caused an ABR threshold shift of 21.6±1.7, 35.5±1.9 and 43.9±2.3 dB threshold shift at 8, 16 and 32 kHz respectively. Oral capsaicin treatment completely protects from NIHL (3.9±1.4, 6.1±1.8 and 8.9±2.1 dB threshold shift at 8, 16 and 32 kHz respectively), there is no significant change in ABR threshold shift compared to control. […] Statistical significance was calculated using one way ANOVA with Tukey's post-hoc analyses, p<0.05 (FIG. 16.A.).
ABR measurements were conducted in naïve male Wistar rats. […]

[2] = tested on: rat cochlea; experiment: Cochlear gene expression by qPCR after noise exposure; type: in vivo
Method: Cochleae were pared down to the bone, crushed in liquid nitrogen followed by extraction in 500 μl of TRI reagent. 0.1 ml of chloroform was added, and the tube was shaken vigorously for 15 seconds and centrifuged at 12,000×g for 15 min. RNA was extracted by washing the pellet with 0.5 ml ice-cold isopropanol followed by cold 75% treated ethanol. The ethanol was removed and the tube was air dried briefly. The RNA pellet was resuspended in nuclease free water and RNA levels were determined using optical density readings corresponding to wavelengths of 260 nm, 280 and 320 nm using a spectrophotometer (Eppendorf BioPhotometer, Hamburg, Germany).
500 ng of total RNA was converted to cDNA using iScript cDNA Synthesis Kit (Bio-Rad, Hercules, CA). The reaction mixture was set up as follows: Ing of total RNA, 4 μl of iScript reaction mix, 1 μl of iScript reverse transcriptase, nuclease free water to bring the total volume to 20 μl. The reaction mix was incubated at 25° C. for 5 min, 42° C. for 30 minutes and 85° C. for 5 minutes. This cDNA reaction mix was used for real time PCR, as described previously [Mukherjea et al., 2006]. Gene specific primer pairs were used for the various reactions and mRNA expression levels were normalized to the levels of GAPDH. The primer sets were purchased from Sigma Genosys (St. Louis, MO), and were as follows: […]

[3] = 25 mg ETA twice a week for 24 weeks; Matteson et al.; cited from earlier work
[4] = tested on: Wistar rats; experiment: Restoration of hearing after permanent threshold shifts (Example 10B); type: in vivo, rat; conditions: treatment after PTS at 4 weeks; oral capsaicin 5 mg/kg 3 days, ETA 1 mg/kg s.c. day 2, three weeks
Method: FIG. 23A is a schematic showing the experimental paradigm used in Example 10B. Pre-treatment baseline ABRs were performed in naïve male Wistar rats. The rats were then used either as sham controls (no noise exposure) or exposed-noise (122 dB, OBN centered at 16 kHz for 1 hour). Post noise exposure ABRs were repeated at 4 weeks to establish permanent threshold shifts (PTS). […] Final ABR threshold values were evaluated at week 9 post noise exposure.
Values shown in FIGS. 23A-23C and otherwise provided with respect to this Example 10B are expressed as the mean±SEM. Statistical significance was analyzed using the ANOVA and Tukey's host hoc analysis.

[5] = TT ETA rescue at 24 hours post NE
[6] = TT ETA rescue within 2 hours post NE
[7] = TT-ETA 250 μg/50 μl, 3 day pre-treatment, 21 days post NE
[8] = s.c. ETA rescue at 24 hours post NE
[9] = s.c. ETA rescue within 2 hours post NE
[10] = subcutaneous ETA 3 mg/kg, 3 day pre-treatment, 21 days post NE

In the case of etanercept, the “increase in hearing threshold (hearing loss)” value ([1]; ETA pre-treatment sc or TT, 3 or 7 days prior to NE (FIG. 17.A)) is reported as 5-10 dB, the threshold shifts ([1]; TT ETA at 2 h post NE (FIG. 17.B)) is reported as 20-37.5 dB and the “ABR threshold shift at 8 kHz” value [1, 5] is reported as 22.5±2.9 dB. The “ABR threshold shift at 16 kHz” value [1, 5] was 31.25±3.2 dB, the “ABR threshold shift at 32 kHz” value [1, 5] was 37.5±3.7 dB and the “ABR threshold shift at 8 kHz” value [1, 6] was 20±2.6 dB. For the same substance, the “ABR threshold shift at 16 kHz” value [1, 6] was 30±2.7 dB, the “ABR threshold shift at 32 kHz” value [1, 6] was 33.75±2.7 dB and the “ABR threshold shift at 8 kHz” value ([1]; TT ETA, 7 day pretreatment) was 16.25±3.25 dB. The “ABR threshold shift at 16 kHz” value ([1]; TT ETA, 7 day pretreatment) was 16.25±3.75 dB, the “ABR threshold shift at 32 kHz” value ([1]; TT ETA, 7 day pretreatment) was 16.25±4.6 dB and the “ABR threshold shift at 8 kHz” value [1, 7] was 1.25±1.25 dB. For the same substance, the “ABR threshold shift at 16 kHz” value [1, 7] was 0 dB, the “ABR threshold shift at 32 kHz” value [1, 7] was 3.75±1.8 dB and the “Wave 1 amplitude versus sound intensity” value ([1]; capsaicin 5 mg/kg oral, ETA 1 mg/kg, noise exposure (FIG. 18.B)) was “partial restoration”. For the same substance, the “ABR threshold shift at 8 kHz” value ([1]; s.c ETA, 7 day pretreatment) was 12.5±3.6 dB, the “ABR threshold shift at 16 kHz” value ([1]; s.c ETA, 7 day pretreatment) was 15±5 dB and the “ABR threshold shift at 32 kHz” value ([1]; s.c ETA, 7 day pretreatment) was 16.25±5.3 dB. For the same substance, the “ABR threshold shift at 8 kHz” value [1, 8] was 21.25±3.9 dB, the “ABR threshold shift at 16 kHz” value [1, 8] was 22.5±4.9 dB and the “ABR threshold shift at 32 kHz” value [1, 8] was 26.25±5.6 dB. The “ABR threshold shift at 8 kHz” value [1, 9] was 9.16±2.6 dB, the “ABR threshold shift at 16 kHz” value [1, 9] was 15.8±4.5 dB and the “ABR threshold shift at 32 kHz” value [1, 9] was 20.8±6.0 dB. The “ABR threshold shift at 8 kHz” value [1, 10] was 4±1.6 dB, the “ABR threshold shift at 16 kHz” value [1, 10] was 8±2.5 dB and the “ABR threshold shift at 32 kHz” value [1, 10] was 11±18 dB. For the same substance, the threshold shift ([1]; subcutaneous ETA at 2 h post NE (FIG. 17.B)) was 10-25 dB, the “TRPV1, TNF-α and COX2 expression” value ([2]; ETA rescue by TT injection at 24 hours) was “unable to decrease the TRPV1, TNF-α and COX2 to basal levels” and the “NE induced up regulation of TRPV1, TNF-α, NOX3, COX2, iNOS and Bax” value ([2]; pretreatment with ETA) was “prevents the NE induced up regulation”. For the same substance, the side effects [3] was “no side effects” and the “average hearing threshold shifts at 9 weeks” value [4] was 25-38 dB.
